Experimental data reported in PubChem BioAssay AID1963849 (Molecular Pharmacology Branch, DTP, NCI, 2024).

Tested on: 299254-011-R-J1-PDC complex spheroid viability
Experiment: Anticancer human tumor 299254-011-R-J1-PDC patient-derived melanoma cell line growth inhibition [POLQ]
Settings: for IC50: curve of first compound; for viability, T/C: stronger effect = lower value
How it was run: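 Growth inhibition in 3D: complex spheroids (tumor PDC, HUVEC, MSC) treated with POLQ inhibitor combinations; where Cmax unknown, highest tested concentration 10 microM, except SN-38 at 1 microM.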

[1] = second compound 0.0316 µM, first compound 0.0316 µM
[2] = second compound 0.0316 µM, first compound 0.1 µM
[3] = second compound 0.0316 µM, first compound 0.316 µM
[4] = second compound 0.0316 µM, first compound 1 µM
[5] = second compound 0.0316 µM, first compound 3.16 µM
[6] = second compound 0.0316 µM, first compound 10 µM
[7] = second compound 0.1 µM, first compound 0.0316 µM
[8] = second compound 0.1 µM, first compound 0.1 µM
[9] = second compound 0.1 µM, first compound 0.316 µM
[10] = second compound 0.1 µM, first compound 1 µM
[11] = second compound 0.1 µM, first compound 3.16 µM
[12] = second compound 0.1 µM, first compound 10 µM
[13] = second compound 0.316 µM, first compound 0.0316 µM
[14] = second compound 0.316 µM, first compound 0.1 µM
[15] = second compound 0.316 µM, first compound 0.316 µM
[16] = second compound 0.316 µM, first compound 1 µM
[17] = second compound 0.316 µM, first compound 3.16 µM
[18] = second compound 0.316 µM, first compound 10 µM
[19] = second compound 1 µM, first compound 0.0316 µM
[20] = second compound 1 µM, first compound 0.1 µM
[21] = second compound 1 µM, first compound 0.316 µM
[22] = second compound 1 µM, first compound 1 µM
[23] = second compound 1 µM, first compound 3.16 µM
[24] = second compound 1 µM, first compound 10 µM
[25] = second compound 3.16 µM, first compound 0.0316 µM
[26] = second compound 3.16 µM, first compound 0.1 µM
[27] = second compound 3.16 µM, first compound 0.316 µM
[28] = second compound 3.16 µM, first compound 1 µM
[29] = second compound 3.16 µM, first compound 3.16 µM
[30] = second compound 3.16 µM, first compound 10 µM
[31] = second compound 10 µM, first compound 0.0316 µM
[32] = second compound 10 µM, first compound 0.1 µM
[33] = second compound 10 µM, first compound 0.316 µM
[34] = second compound 10 µM, first compound 1 µM
[35] = second compound 10 µM, first compound 3.16 µM
[36] = second compound 10 µM, first compound 10 µM
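Also: spheroids exposed to drugs for one week before measurement.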
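For viability, T/C in this document: percent viability relative to DMSO vehicle control taken as 100%.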

COc1cc2cc(C(=O)CCC(=O)O)sc2cc1OC + Nc1ccc(C#CCN(C(=O)Cc2ncc(C(F)(F)F)cc2C(F)(F)F)c2ccc(F)cc2)nn1
IC50 (second compound 0.0316 µM): > 10 µM | IC50 (second compound 0.1 µM): > 10 µM | IC50 (second compound 0.316 µM): > 10 µM | IC50 (second compound 1 µM): > 10 µM | IC50 (second compound 3.16 µM): > 10 µM | IC50 (second compound 10 µM): > 10 µM | viability, T/C [1]: 99% | viability, T/C [2]: 97.8% | viability, T/C [3]: 85.9% | viability, T/C [4]: 94% | viability, T/C [5]: 111% | viability, T/C [6]: 106% | viability, T/C [7]: 96.9% | viability, T/C [8]: 83.8% | viability, T/C [9]: 82.3% | viability, T/C [10]: 105% | viability, T/C [11]: 111% | viability, T/C [12]: 102% | viability, T/C [13]: 99.3% | viability, T/C [14]: 102% | viability, T/C [15]: 90.5% | viability, T/C [16]: 86.3% | viability, T/C [17]: 97.5% | viability, T/C [18]: 102% | viability, T/C [19]: 77.2% | viability, T/C [20]: 94.6% | viability, T/C [21]: 92.4% | viability, T/C [22]: 91.4% | viability, T/C [23]: 94.7% | viability, T/C [24]: 93.4% | viability, T/C [25]: 109% | viability, T/C [26]: 87.8% | viability, T/C [27]: 97.4% | viability, T/C [28]: 102% | viability, T/C [29]: 100% | viability, T/C [30]: 115% | viability, T/C [31]: 104% | viability, T/C [32]: 88% | viability, T/C [33]: 92.6% | viability, T/C [34]: 99.4% | viability, T/C [35]: 86.7% | viability, T/C [36]: 87.1%

COc1ccc([C@@H](O)c2cc(-c3ncnc4cc(N5CCOCC5)ccc34)c(F)cc2Cl)nn1 + Nc1ccc(C#CCN(C(=O)Cc2ncc(C(F)(F)F)cc2C(F)(F)F)c2ccc(F)cc2)nn1
IC50 (second compound 0.0316 µM): > 10 µM | IC50 (second compound 0.1 µM): 9.37 µM | IC50 (second compound 0.316 µM): > 10 µM | IC50 (second compound 1 µM): 9 µM | IC50 (second compound 3.16 µM): > 10 µM | IC50 (second compound 10 µM): > 10 µM | viability, T/C [1]: 116% | viability, T/C [2]: 112% | viability, T/C [3]: 98% | viability, T/C [4]: 105% | viability, T/C [5]: 91.5% | viability, T/C [6]: 50% | viability, T/C [7]: 94.3% | viability, T/C [8]: 89.4% | viability, T/C [9]: 100% | viability, T/C [10]: 105% | viability, T/C [11]: 105% | viability, T/C [12]: 47% | viability, T/C [13]: 106% | viability, T/C [14]: 108% | viability, T/C [15]: 105% | viability, T/C [16]: 104% | viability, T/C [17]: 88.8% | viability, T/C [18]: 54.3% | viability, T/C [19]: 102% | viability, T/C [20]: 98.5% | viability, T/C [21]: 105% | viability, T/C [22]: 106% | viability, T/C [23]: 106% | viability, T/C [24]: 44.4% | viability, T/C [25]: 103% | viability, T/C [26]: 101% | viability, T/C [27]: 96.7% | viability, T/C [28]: 96% | viability, T/C [29]: 81.9% | viability, T/C [30]: 54.4% | viability, T/C [31]: 99.1% | viability, T/C [32]: 93.5% | viability, T/C [33]: 91.1% | viability, T/C [34]: 86.4% | viability, T/C [35]: 80.4% | viability, T/C [36]: 54%
